Columns and labels:
[1] = target: T1, hPPARα (Homo sapiens, UniProt Q07869); experiment: Gal4-hPPARα chimera transactivation (luciferase) in COS-7 cells; format: cell-based; conditions: COS-7 cells, Gal4-hPPARα, 24 hours; for EC50: luciferase, read-out: PPARα EC50; for Emax: relative to maximum activation obtained with fenofibric acid, read-out: PPARα TOP % (maximum activation)
T1 construct: corresponding to the DEF domains (structural elements of the promoter of the PPARs: D=hinge, EF=ligand fixation domain and AF2 fixation site); expressed in transfected cells; host or cells: COS-7 (monkey kidney fibroblasts)
T1 sequence (Q07869 239-466 limits assumed): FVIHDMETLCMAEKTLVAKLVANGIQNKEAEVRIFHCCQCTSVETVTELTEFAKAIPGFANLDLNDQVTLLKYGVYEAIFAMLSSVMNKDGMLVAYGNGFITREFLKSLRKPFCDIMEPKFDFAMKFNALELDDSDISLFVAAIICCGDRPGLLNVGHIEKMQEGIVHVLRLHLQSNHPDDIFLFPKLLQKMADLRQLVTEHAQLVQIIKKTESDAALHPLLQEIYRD
Method in brief: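 COS-7 cells transiently co-transfected with Gal4 DBD–human PPARα, γ or δ DEF-domain chimeras plus Gal4(RE)_TkpGL3 luciferase reporter (1/10), seeded serum-free, then compound-treated 24 h at 37 °C in 1% Ultroser. Luciferase read after lysis; EC50 and TOP % relative to maximal activation by fenofibric acid (α), rosiglitazone (γ) or GW501516 (δ).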

[2] = target: T2, hPPARδ (Homo sapiens, UniProt Q03181); experiment: Gal4-hPPARδ chimera transactivation (luciferase) in COS-7 cells; format: cell-based; conditions: COS-7 cells, Gal4-hPPARδ, 24 hours; for EC50: luciferase, read-out: PPARδ EC50; for Emax: relative to maximum activation obtained with GW501516, read-out: PPARδ TOP % (maximum activation)
T2 construct: corresponding to the DEF domains (structural elements of the promoter of the PPARs: D=hinge, EF=ligand fixation domain and AF2 fixation site); expressed in transfected cells; host or cells: COS-7 (monkey kidney fibroblasts)
T2 sequence (Q03181 211-439 limits assumed): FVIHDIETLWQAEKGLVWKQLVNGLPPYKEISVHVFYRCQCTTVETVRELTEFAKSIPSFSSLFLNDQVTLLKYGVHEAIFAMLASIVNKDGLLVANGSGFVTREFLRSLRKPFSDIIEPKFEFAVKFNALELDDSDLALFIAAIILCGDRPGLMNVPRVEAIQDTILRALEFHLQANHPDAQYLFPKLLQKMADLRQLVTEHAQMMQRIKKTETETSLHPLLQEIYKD
Method in brief: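 COS-7 cells transfected with Gal4-DBD fused to human PPARγ or PPARδ DEF (hinge/ligand-binding) domain plus Gal4(RE)_TkpGL3 luciferase reporter (1:10).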

[3] = test system: ApoE2/E2 dyslipidemic mouse; experiment: Plasma lipids in the ApoE2/E2 dyslipidemic mouse; format: in vivo; conditions: 7 days
Description: The hypolipemic properties of the compounds according to the invention were evaluated in vivo by determination of plasma lipids and by analysis of gene expression of targets genes of PPARs in the liver after oral treatment of a dyslipidemic mouse with the compounds according to the invention.
The murine model used is the mouse of type ApoE2/E2, a mouse transgenic for the E2 isoform of human apolipoprotein E (Sullivan P M et al., 1998). In humans, this apolipoprotein, a constituent of low and very low density lipoproteins (LDL-VLDL), occurs in three isoforms E2, E3 and E4. […] Because of this, clearance of VLDLs is almost zero. This leads to accumulation of […] and mixed, so-called type III hyperlipidemia (raised cholesterol and triglycerides).
PPARα regulates the expression of genes involved in lipid transport (apolipoproteins such as Apo AI, Apo AII and Apo CIII, membrane transporters such as FAT) or the catabolism of lipids (ACO, CPT-I or CPT-II, enzymes of β-oxidation of fatty acids). Treatment with PPARα activators is therefore reflected, both in humans and in rodents, in a decrease in levels of circulating triglycerides. Measurement of plasma lipids after treatment with the compounds according to the invention is therefore an indicator of the PPARα agonist character and therefore of the hypolipemic action of the compounds according to the invention.
Apo E2/E2 transgenic mice were kept in a cycle of light and darkness of 12 hours/12 hours at a constant temperature of 20±3° C. After acclimation for one week, the mice were weighed and put into groups of 6 animals selected in such a way that the distribution of their bodyweight and of their plasma lipid values determined first before the experiment are uniform. The compounds tested were suspended in carboxymethylcellulose (Sigma C4888) and administered at the chosen dose by stomach tube, at a rate of once a day for 7 days at the chosen dose. The animals had free access to water and food. At the end of the experiment, the animals were anesthetized after fasting for 4 hours, a blood sample was taken on anticoagulant (EDTA), then the mice were weighed and euthanased. The plasma was separated by centrifugation at 3000 rev/min for 20 minutes, and the samples were stored at +4° C. for the biochemical assays. Samples of liver were taken and frozen immediately in liquid nitrogen and then stored at −80° C. for subsequent analyses.
The plasma concentrations of lipids (total cholesterol, HDL-cholesterol, and free fatty acids) were measured by enzyme assays (bioMérieux-Lyons-France) according to the supplier's recommendations.

COc1nc(-c2ccc(C(F)(F)F)cc2)ccc1COc1ccc(OCC(=O)O)cc1 [Cpd 24, 2-(4-((2-methoxy-6-(4-(trifluoromethyl)phenyl)pyridin-3-yl)methoxy)-phenoxy)ethanoic acid]
EC50 [1]: 371 nM
Emax [1]: 76.8%
EC50 [2]: 784 nM
Emax [2]: 94.1%

COc1nc(-c2ccccc2)ccc1CNc1ccc(CCC(=O)O)cc1 [Cpd 19, 3-(4-(((2-methoxy-6-phenylpyridin-3-yl)methyl)amino)phenyl)propanoic acid]
EC50 [1]: 2370 nM
Emax [1]: 68%
EC50 [2]: 3130 nM
Emax [2]: 95.1%
plasma level of free fatty acids ([3]; 100 mpk oral): decrease
plasma total cholesterol ([3]; 100 mpk oral): decreased

COc1nc(-c2ccccc2)ccc1CNc1ccc(OCC(=O)O)cc1 [Cpd 4, 2-(4-(((2-methoxy-6-phenylpyridin-3yl)methyl)amino)phenoxy)ethanoic acid]
EC50 [1]: 1470 nM
Emax [1]: 66.7%
EC50 [2]: 8670 nM
Emax [2]: 115%
plasma level of HDL-cholesterol ([3]; 10 and 100 mpk oral): dose-dependent increase
plasma total cholesterol ([3]; 10 and 100 mpk oral): decreased

COc1nc(-c2ccccc2)ccc1COc1ccc(OCC(=O)O)cc1 [Cpd 2, 2-(4-((2-methoxy-6-phenylpyridin-3-yl)methoxy)phenoxy)ethanoic acid]
EC50 [1]: 143 nM
Emax [1]: 48.3%
EC50 [2]: 2000 nM
Emax [2]: 109%
plasma level of HDL-cholesterol ([3]; 10 and 100 mpk oral): dose-dependent increase
plasma total cholesterol ([3]; 10 and 100 mpk oral): decreased

— patent US8461183B2, “PPAR agonist compounds, preparation and uses” (Genfit, priority 2008, dated 2013)
